What follows are compounds tested against T1, human topoisomerase I (Homo sapiens, UniProt P11387) (assay: Topoisomerase I cleavage assay, human enzyme). Details: recombinant human topoisomerase I.
T1 construct: made in house; host or cells: Escherichia coli BL21 (DE3) harboring PET1B
T1 sequence (P11387 1-765): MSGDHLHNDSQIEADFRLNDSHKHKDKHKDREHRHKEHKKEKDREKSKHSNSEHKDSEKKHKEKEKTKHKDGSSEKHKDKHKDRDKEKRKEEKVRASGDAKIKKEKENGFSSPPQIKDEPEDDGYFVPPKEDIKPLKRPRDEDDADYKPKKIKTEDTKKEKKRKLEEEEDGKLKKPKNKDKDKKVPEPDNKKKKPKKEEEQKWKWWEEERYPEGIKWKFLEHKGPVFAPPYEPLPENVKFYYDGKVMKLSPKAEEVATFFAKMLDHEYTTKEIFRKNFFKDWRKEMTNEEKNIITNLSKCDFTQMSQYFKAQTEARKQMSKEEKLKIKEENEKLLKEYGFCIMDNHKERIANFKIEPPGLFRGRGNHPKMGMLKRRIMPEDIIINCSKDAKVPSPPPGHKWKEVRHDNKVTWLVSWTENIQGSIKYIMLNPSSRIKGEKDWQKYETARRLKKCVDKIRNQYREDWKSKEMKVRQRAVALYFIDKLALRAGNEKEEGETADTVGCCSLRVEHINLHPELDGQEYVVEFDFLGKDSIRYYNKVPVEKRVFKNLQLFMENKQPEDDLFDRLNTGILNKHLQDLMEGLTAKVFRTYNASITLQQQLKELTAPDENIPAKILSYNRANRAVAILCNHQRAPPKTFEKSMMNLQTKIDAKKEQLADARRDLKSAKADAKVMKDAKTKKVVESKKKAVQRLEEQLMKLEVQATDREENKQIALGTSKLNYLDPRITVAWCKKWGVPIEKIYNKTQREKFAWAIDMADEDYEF
Type: biochemical
Procedure: Plasmid YEpG was also purified by the alkali lysis method followed by phenol deproteination and CsCl/ethidium isopycnic centrifugation as described by T. Maniatis et al., Molecular Cloning, A Laboratory Manual, Cold Spring Harbor Labs, N.Y. (1982) at pages 149-185. The end-labeling of the plasmid was accomplished as previously described by L. F. Liu et al., J. Biol. Chem., 258, 15365 (1983). The cleavage assays were performed as previously reported by A. Y. Chen et al., Cancer Res., 53, 1332 (1993). Human topoisomerase I was isolated as a recombinant fusion protein using a T7 expression system.
Subsequent steps in purification were the same as described previously for purification of recombinant human DNA topoisomerase I (B. Gatto et al., Cancer Res., 56, 2795 (1996)). Briefly, the supernatant was chromatographed directly onto a hydroxyapatite Bio-gel HTP (BioRad Laboratories, Richmond, Calif.) column. Fractions containing relaxation activity were pooled, diluted and then loaded onto a BioRex70 column (BioRad Laboratories, Richmond, Calif.). The column was developed with a linear gradient from 0.2 to 1M KCl. The peak fractions were pooled and dialyzed overnight at 4° C. against 30 mM potassium phosphate, 50% glycerol (v/v), 0.5 mM EDTA, and 1 mM DTT. Recombinant human topoisomerase I was purified from Escherichia coli BL21 (DE3) harboring PET1B as described previously (Gatto et al., Cancer Res., 56, 2795 (1996)).
DNA topoisomerase I cleavage assays were performed as described by Y.-H. Hsiang et al., J. Biol. Chem., 260, 14873 (1985). YEpG DNA was linearized with BamHI and then 3 '-end-labeled with Klenow polymerase and α[-^32 P]dCTP. Following phenol extraction and ethanol precipitation, the labeled DNA was resuspended in 10 mM Tris, pH 8.0, and 1 mM EDTA. The DNA cleavage assay was done in a reaction mixture (20 μl) containing 40 mM Tris-HCl, pH 7.8, 100 mM KCl, 10 mM MgCl2, 0.5 mM dithiothreitol, 0.5 mM EDTA, 30 μg/ml bovine serum albumin, 20 ng of labeled YEpG DNA, and […] of Aspergillus or human topoisomerase I diluted to various extents. Following incubation at 23° C. for 15 minutes, the reactions were terminated by the addition of SDS (final concentration 1%) and proteinase K (final concentration 200 μg/ml). Proteinase K treatment continued at 37° C. for another 1 hour. The terminated reactions were either alkali-denatured and then loaded (alkaline loading) or loaded directedly in neutral loading buffer (neutral loading) onto a 1% agarose gel in neutral TPE electrophoresis solution. Gel drying and autoradiography were performed as described by Hsiang et al., cited above.

**Q.** `CCOc1ccc(-c2nc3cc(-c4nc5cc(N6CCN(C)CC6)ccc5[nH]4)ccc3[nH]2)cc1` [Hoechst 33342, 2'-(4-ethoxyphenyl)-5-(4-methyl-1-piperazinyl)-2,5'-bi-1H-benzimidazole] was tested. Which “sensitivity of human topoisomerase I to poisoning / DNA cleavage with human topoisomerase I, in words” value did it give?
**A.** sensitive

**Q.** Which “sensitivity of human topoisomerase I to poisoning / DNA cleavage with human topoisomerase I, in words” value does the source give for `c1ccc(-c2ccc3[nH]c(-c4ccc5[nH]c(-c6ccc7[nH]cnc7c6)nc5c4)nc3c2)cc1` [Compound 13, 5-Phenyl-2-[2'(benzimidazol-5"-yl)benzimidazol-5'-yl]benzimidazole] here?
**A.** sensitive

**Q.** Which “sensitivity of human topoisomerase I to poisoning / DNA cleavage with human topoisomerase I, in words” value does the source give for `CC[C@@]1(O)C(=O)OCc2c1cc1n(c2=O)Cc2cc3ccccc3nc2-1` [camptothecin] here?
**A.** sensitive

**Q.** How did the “sensitivity of human topoisomerase I to poisoning / DNA cleavage with human topoisomerase I, in words” value turn out when `N#Cc1ccc2[nH]c(-c3ccc4[nH]c(-c5ccc6[nH]cnc6c5)nc4c3)nc2c1` [Compound 11, 5-Cyano-2-[2'-(benzimidazol-5"-yl)benzimidazol-5'-yl]benzimidazole] was run?
**A.** sensitive
